“And” between values parts separate entries of the source, which are not always exact repeats. Equal entries are not always repeated.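 Step 1: Grow cells in 96-well plates. Step 2: Expose to compound for 48 hours at 5 concentrations. Step 3: Interpolate endpoints linearly; if unreached, use highest concentration. GI50 is the concentration that inhibits growth by half. TGI denotes the concentration required for complete inhibition of growth.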 Some results are limits rather than exact numbers.

Some test systems named below: A498 renal; A549 NSCLC; ACHN renal; COLO 205 colon; HL-60(TB) leukemia; HOP-92 NSCLC; SK-MEL-5 melanoma; SR leukemia; UACC-257 melanoma; UACC-62 melanoma.
Common to all, as to experiment: NCI-60 cell line screen, 48 h

`COC(=O)c1c2c(c(C)[n+]([O-])c1C)C(=O)C=C(NCc1cccc(Cl)c1)C2=O`: the GI50 in the experiment on A498 renal is 1.21 µM; with A549 NSCLC, 0.462 µM; with ACHN renal, 0.661 µM; in the experiment on COLO 205 colon it was 0.292 µM; with HL-60(TB) leukemia it was 0.287 µM; in the experiment on HOP-92 NSCLC, 1.81 µM. The GI50 in the experiment with SK-MEL-5 melanoma was 0.167 µM; with SR leukemia, 0.35 µM; in the experiment with UACC-257 melanoma, 0.234 µM; with UACC-62 melanoma it was 0.0741 µM. Besides, the TGI amounted to 2.46 µM with A498 renal; 2.22 µM with A549 NSCLC; 2.04 µM in the experiment with ACHN renal; 0.961 µM in the experiment with COLO 205 colon; 0.935 µM in the experiment with HL-60(TB) leukemia; 4.1 µM with HOP-92 NSCLC. Also, the TGI in the experiment with SK-MEL-5 melanoma was determined as 0.316 µM; with SR leukemia it was 6.64 µM; in the experiment with UACC-257 melanoma, 0.725 µM; in the experiment on UACC-62 melanoma it was 0.459 µM.
On to `Cc1ccc(S(=O)(=O)c2ccc(C)cc2[N+](=O)[O-])cc1`, for which the TGI in the experiment on A498 renal, in the experiment with A549 NSCLC, in the experiment with ACHN renal, in the experiment on COLO 205 colon, in the experiment with HL-60(TB) leukemia and with HOP-92 NSCLC was more than 100 µM each time. The TGI in the experiment with SK-MEL-5 melanoma was 76.8 µM; in the experiment with SR leukemia it was more than 100 µM; in the experiment with UACC-257 melanoma, more than 100 µM; with UACC-62 melanoma, more than 100 µM.
On to `CC1=NOC(=O)/C1=C/c1ccc([N+](=O)[O-])cc1`, for which the TGI in the experiment on A498 renal, in the experiment with A549 NSCLC, in the experiment with ACHN renal, in the experiment with COLO 205 colon, in the experiment with HL-60(TB) leukemia and in the experiment on HOP-92 NSCLC was more than 100 µM throughout. In addition, the TGI with SK-MEL-5 melanoma, in the experiment on SR leukemia, in the experiment on UACC-257 melanoma and with UACC-62 melanoma was more than 100 µM in each case.
`O=CN1N=C(c2cccc(Nc3ccnc4cc(Cl)ccc34)c2)CC1c1ccccc1` (configuration not stated): the GI50 is 0.23 µM with A498 renal; 0.501 µM in the experiment with A549 NSCLC; 0.778 µM in the experiment with ACHN renal; 0.35 µM with COLO 205 colon; 0.213 µM in the experiment on HL-60(TB) leukemia; 0.209 µM with HOP-92 NSCLC. Also, the GI50 with SK-MEL-5 melanoma is 0.315 µM; with SR leukemia, 0.201 µM; with UACC-257 melanoma, 0.301 µM; with UACC-62 melanoma, 0.444 µM. The TGI in the experiment with A498 renal was 1.1 µM; in the experiment with A549 NSCLC, more than 26.2 µM; in the experiment with ACHN renal, more than 79.4 µM; with COLO 205 colon, 2.76 µM; in the experiment with HL-60(TB) leukemia, 0.487 µM; in the experiment on HOP-92 NSCLC, 0.787 µM. In addition, the TGI with SK-MEL-5 melanoma came out at 2.02 µM; in the experiment with SR leukemia, 1.72 µM; with UACC-257 melanoma, 37.6 µM; with UACC-62 melanoma it was 21.8 µM.
Consider `COC1CCC(OC)C(C2(C3CC(OC)CCC3OC)OC(=O)c3ccccc32)C1` (configuration not stated), for which the TGI is more than 100 µM in the experiment with A498 renal; more than 100 µM in the experiment with A549 NSCLC; more than 100 µM in the experiment on ACHN renal; more than 100 µM with COLO 205 colon; 45.1 µM in the experiment with HL-60(TB) leukemia; more than 100 µM in the experiment with HOP-92 NSCLC. Also, the TGI in the experiment on SK-MEL-5 melanoma, in the experiment with SR leukemia, in the experiment with UACC-257 melanoma and in the experiment on UACC-62 melanoma was more than 100 µM throughout.
With `CCCCCCCCCCCCCCCCOP(=O)([O-])OCC[N+](C)(C)C`, the GI50 in the experiment on A498 renal is 1.13 µM; with A549 NSCLC, 1.6 µM; in the experiment with ACHN renal, 1.6 µM; with COLO 205 colon, 0.424 µM; in the experiment with HL-60(TB) leukemia it was 0.897 µM; in the experiment on HOP-92 NSCLC it was 1.14 µM. The GI50 in the experiment on SK-MEL-5 melanoma is 1.92 µM; in the experiment on SR leukemia, 0.546 µM; in the experiment on UACC-257 melanoma, 2.31 µM; in the experiment on UACC-62 melanoma, 1.34 µM. The TGI is 5.24 µM and 37.4 µM in the experiment on A498 renal; 3.63 µM and 30.8 µM in the experiment on ACHN renal; 3.84 µM and 16.3 µM in the experiment on HL-60(TB) leukemia; 3.12 µM and 15.3 µM in the experiment with HOP-92 NSCLC; 5.35 µM and 52 µM with SK-MEL-5 melanoma; 3.46 µM and 28.5 µM with SR leukemia. Also, in the experiment on UACC-257 melanoma, the TGI is 6.98 µM and 64.7 µM.
For the molecule `Clc1ccc2nc(CI)c(CI)nc2c1`, the GI50 in the experiment with A498 renal was 29.7 µM; in the experiment with A549 NSCLC, 17.8 µM; in the experiment on ACHN renal, 1.83 µM; in the experiment on COLO 205 colon, 1.77 µM; in the experiment with HL-60(TB) leukemia, 1.23 µM; in the experiment on HOP-92 NSCLC it was 3 µM. In addition, the GI50 in the experiment with SK-MEL-5 melanoma is 4.59 µM; in the experiment on SR leukemia, 1.68 µM; with UACC-257 melanoma, 4.51 µM; in the experiment with UACC-62 melanoma it was 4.73 µM. The TGI was more than 60.7 µM in the experiment on A498 renal; 38.7 µM in the experiment on A549 NSCLC; 3.4 µM in the experiment with ACHN renal; 3.28 µM with COLO 205 colon; 9.06 µM in the experiment with HL-60(TB) leukemia; 8.3 µM in the experiment on HOP-92 NSCLC. Moreover, the TGI with SK-MEL-5 melanoma was determined as 14.3 µM; in the experiment on SR leukemia it was 6.79 µM; in the experiment with UACC-257 melanoma it was 16.8 µM; in the experiment on UACC-62 melanoma it was 17.2 µM.
As to `Cn1nc(C(F)(F)F)c(-c2cc(C(F)(F)F)cc(C(F)(F)F)c2)c1-c1ccc(OCc2ccc(Cl)cc2)cc1O`, the GI50 is 1.31 µM with A498 renal; 3.18 µM in the experiment with A549 NSCLC; 2.54 µM in the experiment with ACHN renal; 1.7 µM with COLO 205 colon; 2.08 µM in the experiment with HL-60(TB) leukemia; 1.63 µM with HOP-92 NSCLC. The GI50 with SK-MEL-5 melanoma was 1.45 µM; with SR leukemia, 1.79 µM; in the experiment with UACC-257 melanoma, 2.07 µM; with UACC-62 melanoma, 1.45 µM. The TGI amounted to 5.13 µM in the experiment with A498 renal; 11.7 µM in the experiment on A549 NSCLC; 10 µM in the experiment on ACHN renal; 3.36 µM in the experiment on COLO 205 colon; 5.57 µM in the experiment with HL-60(TB) leukemia; 5.07 µM in the experiment with HOP-92 NSCLC. In addition, the TGI in the experiment with SK-MEL-5 melanoma turned out to be 3.11 µM; with SR leukemia, 7.51 µM; with UACC-257 melanoma, 6.11 µM; in the experiment on UACC-62 melanoma it was 4.05 µM.

The record behind these values is PubChem BioAssay (NCI).
